The IC50 is the point on the concentration scale where inhibition reaches its midpoint.

Structures are written as SMILES. Activity calls are given as the source filed them. The rule behind the calls is not given here. Some results are limits rather than exact numbers.

Assay [1] concerns the target Epidermal growth factor receptor (Homo sapiens, UniProt P00533). Briefly: Inhibition of EGFR (unknown origin).
The target in assay [2] is T1, Receptor-type tyrosine-protein kinase FLT3 (Homo sapiens, UniProt P36888).
T1 sequence (P36888 whole entry): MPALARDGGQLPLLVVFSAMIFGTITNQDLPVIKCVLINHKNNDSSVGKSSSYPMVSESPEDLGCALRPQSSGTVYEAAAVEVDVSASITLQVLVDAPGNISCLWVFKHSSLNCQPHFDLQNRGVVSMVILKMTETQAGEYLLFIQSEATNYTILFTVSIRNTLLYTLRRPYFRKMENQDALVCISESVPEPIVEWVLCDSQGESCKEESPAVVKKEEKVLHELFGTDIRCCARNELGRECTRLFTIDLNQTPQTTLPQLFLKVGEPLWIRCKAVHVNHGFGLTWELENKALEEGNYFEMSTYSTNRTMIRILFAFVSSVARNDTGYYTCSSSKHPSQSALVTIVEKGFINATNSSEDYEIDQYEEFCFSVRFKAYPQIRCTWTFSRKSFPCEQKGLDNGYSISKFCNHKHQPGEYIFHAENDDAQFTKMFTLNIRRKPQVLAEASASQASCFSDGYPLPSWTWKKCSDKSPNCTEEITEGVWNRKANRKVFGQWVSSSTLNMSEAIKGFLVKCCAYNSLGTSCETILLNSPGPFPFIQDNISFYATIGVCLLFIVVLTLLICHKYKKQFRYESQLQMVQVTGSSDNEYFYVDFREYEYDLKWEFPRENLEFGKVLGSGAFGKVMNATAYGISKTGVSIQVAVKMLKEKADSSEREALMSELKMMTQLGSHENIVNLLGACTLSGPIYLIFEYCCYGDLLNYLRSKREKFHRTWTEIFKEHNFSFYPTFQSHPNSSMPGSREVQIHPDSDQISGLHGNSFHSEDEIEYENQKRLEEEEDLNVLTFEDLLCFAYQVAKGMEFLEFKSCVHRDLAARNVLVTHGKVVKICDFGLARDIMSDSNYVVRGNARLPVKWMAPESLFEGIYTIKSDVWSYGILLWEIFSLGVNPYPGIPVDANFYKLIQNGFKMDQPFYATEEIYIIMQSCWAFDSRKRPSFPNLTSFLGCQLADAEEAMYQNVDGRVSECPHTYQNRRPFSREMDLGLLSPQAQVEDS
In words: Inhibition of FLT3 (unknown origin).

In assay [3] the target is Serine/threonine-protein kinase B-raf (Homo sapiens, UniProt P15056). In words: Inhibition of B-Raf (unknown origin) using MEK1 as substrate measured after 2 hrs by ELISA. In general terms: ELISA stands for enzyme-linked immunosorbent assay.
Assay [4] concerns HUVEC. In words: Antiangiogenic activity against HUVEC assessed as reduction in tube formation at 0.05 uM after 6 hrs by matrigel based phase contrast microscopic analysis. Type of assay: functional, Homo sapiens. Details: scale not given: the % may be the effect or the level left.
Assay [5] deals with Mast/stem cell growth factor receptor Kit (Homo sapiens, UniProt P10721). In words: Inhibition of c-KIT (unknown origin).
The target in assay [6] is Vascular endothelial growth factor receptor 2 (Homo sapiens, UniProt P35968). Briefly: Inhibition of VEGFR2 (unknown origin) using FAM-labelled peptide as substrate pretreated for 10 mins followed by substrate addition measured after 30 mins by caliper mobility shift assay.
For assay [7], the target named is Serine/threonine-protein kinase B-raf (Homo sapiens, UniProt P15056, V600E). In words: Inhibition of B-Raf V600E mutant (unknown origin) using MEK1 as substrate measured after 2 hrs by ELISA.
In another assay the test system is HCT-116. In words: cells. As to conditions: Homo sapiens, HCT-116, 48 h.
A further assay relates to B16-BL6. In words: cells. As to conditions: Mus musculus, B16-BL6, 48 h.
Assay [8] has as its system HUVEC. In words: Antiangiogenic activity against HUVEC assessed as reduction in tube formation at 0.1 uM after 6 hrs by matrigel based phase contrast microscopic analysis. On the set-up: scale not given: the % may be the effect or the level left. In kind it is functional, Homo sapiens.

Chain of Serine/threonine-protein kinase B-raf (Homo sapiens, UniProt P15056) (P15056 whole entry): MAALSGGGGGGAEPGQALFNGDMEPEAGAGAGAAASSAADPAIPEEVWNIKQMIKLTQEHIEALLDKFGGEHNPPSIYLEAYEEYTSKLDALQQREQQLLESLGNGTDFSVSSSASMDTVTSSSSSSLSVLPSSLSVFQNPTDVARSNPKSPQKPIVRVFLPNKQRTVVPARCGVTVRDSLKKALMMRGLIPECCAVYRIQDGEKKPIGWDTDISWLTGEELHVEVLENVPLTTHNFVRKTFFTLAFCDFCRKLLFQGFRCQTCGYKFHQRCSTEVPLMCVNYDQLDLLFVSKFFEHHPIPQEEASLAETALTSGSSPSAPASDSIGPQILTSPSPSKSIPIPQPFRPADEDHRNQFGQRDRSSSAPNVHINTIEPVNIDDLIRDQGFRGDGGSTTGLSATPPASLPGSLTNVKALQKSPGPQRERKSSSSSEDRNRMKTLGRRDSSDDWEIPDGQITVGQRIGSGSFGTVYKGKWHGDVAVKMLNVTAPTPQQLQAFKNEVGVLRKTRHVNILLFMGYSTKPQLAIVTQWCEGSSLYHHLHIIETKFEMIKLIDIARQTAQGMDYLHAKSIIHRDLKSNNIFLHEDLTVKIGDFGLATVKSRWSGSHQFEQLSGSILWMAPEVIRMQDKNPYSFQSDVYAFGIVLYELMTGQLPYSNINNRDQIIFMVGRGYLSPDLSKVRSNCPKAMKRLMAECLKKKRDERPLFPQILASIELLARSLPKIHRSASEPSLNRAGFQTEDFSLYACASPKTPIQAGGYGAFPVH
Chain of Epidermal growth factor receptor (P00533 whole entry): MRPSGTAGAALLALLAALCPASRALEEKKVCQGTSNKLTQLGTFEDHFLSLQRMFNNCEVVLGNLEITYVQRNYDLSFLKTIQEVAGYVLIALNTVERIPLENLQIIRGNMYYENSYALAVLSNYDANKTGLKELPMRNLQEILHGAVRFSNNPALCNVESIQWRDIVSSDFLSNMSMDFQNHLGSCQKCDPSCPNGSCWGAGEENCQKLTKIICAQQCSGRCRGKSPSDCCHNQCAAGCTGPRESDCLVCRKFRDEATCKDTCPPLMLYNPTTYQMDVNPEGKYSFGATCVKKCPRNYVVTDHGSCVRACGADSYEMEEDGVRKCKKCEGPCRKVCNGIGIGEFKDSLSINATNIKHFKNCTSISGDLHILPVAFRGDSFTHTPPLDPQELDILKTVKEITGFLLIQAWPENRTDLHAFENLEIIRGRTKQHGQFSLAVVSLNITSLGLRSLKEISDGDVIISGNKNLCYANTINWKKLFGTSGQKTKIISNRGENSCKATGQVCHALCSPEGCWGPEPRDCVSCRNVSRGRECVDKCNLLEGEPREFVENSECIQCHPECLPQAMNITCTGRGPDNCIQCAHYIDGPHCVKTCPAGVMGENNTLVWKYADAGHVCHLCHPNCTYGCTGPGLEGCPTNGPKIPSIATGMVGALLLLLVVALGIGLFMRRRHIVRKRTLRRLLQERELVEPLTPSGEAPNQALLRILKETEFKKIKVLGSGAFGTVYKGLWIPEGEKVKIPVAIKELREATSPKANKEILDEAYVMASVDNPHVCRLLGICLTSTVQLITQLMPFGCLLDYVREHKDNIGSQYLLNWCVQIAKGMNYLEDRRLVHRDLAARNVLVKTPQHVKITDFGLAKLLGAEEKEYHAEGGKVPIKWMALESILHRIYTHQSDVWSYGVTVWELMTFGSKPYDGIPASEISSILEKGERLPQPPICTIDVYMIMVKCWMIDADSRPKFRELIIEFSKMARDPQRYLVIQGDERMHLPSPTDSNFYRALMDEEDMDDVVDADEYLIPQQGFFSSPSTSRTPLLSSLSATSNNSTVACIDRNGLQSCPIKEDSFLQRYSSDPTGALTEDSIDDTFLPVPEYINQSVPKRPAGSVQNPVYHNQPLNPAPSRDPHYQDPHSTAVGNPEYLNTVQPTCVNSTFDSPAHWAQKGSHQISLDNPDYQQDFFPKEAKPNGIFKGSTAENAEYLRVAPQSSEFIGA
Chain of Mast/stem cell growth factor receptor Kit (P10721 whole entry): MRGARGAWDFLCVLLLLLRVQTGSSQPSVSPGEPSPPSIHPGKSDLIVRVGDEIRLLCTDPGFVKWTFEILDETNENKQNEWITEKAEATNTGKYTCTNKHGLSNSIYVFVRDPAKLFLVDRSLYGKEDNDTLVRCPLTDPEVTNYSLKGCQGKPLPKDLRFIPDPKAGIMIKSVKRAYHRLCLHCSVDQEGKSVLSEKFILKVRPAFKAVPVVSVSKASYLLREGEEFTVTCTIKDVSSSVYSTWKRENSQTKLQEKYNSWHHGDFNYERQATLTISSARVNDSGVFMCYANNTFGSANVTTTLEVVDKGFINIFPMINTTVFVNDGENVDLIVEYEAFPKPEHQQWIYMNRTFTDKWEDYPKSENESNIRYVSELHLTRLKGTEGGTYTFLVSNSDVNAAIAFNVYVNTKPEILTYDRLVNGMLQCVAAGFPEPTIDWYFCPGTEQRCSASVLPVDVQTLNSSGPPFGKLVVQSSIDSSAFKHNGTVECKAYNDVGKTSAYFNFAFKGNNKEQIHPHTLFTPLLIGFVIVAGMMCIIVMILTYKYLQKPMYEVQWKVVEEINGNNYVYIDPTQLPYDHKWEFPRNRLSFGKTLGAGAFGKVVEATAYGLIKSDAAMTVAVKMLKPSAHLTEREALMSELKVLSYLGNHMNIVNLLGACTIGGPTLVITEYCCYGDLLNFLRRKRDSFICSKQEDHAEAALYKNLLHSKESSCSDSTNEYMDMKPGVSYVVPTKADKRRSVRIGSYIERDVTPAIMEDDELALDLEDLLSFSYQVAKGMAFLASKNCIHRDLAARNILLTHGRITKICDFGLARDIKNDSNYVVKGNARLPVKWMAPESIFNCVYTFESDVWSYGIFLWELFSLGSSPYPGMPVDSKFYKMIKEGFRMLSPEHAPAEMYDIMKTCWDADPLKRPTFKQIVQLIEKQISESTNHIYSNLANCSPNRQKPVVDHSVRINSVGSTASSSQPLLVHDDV
Chain of Serine/threonine-protein kinase B-raf (Homo sapiens, UniProt P15056, V600E) (P15056 2-766 V600E limits assumed): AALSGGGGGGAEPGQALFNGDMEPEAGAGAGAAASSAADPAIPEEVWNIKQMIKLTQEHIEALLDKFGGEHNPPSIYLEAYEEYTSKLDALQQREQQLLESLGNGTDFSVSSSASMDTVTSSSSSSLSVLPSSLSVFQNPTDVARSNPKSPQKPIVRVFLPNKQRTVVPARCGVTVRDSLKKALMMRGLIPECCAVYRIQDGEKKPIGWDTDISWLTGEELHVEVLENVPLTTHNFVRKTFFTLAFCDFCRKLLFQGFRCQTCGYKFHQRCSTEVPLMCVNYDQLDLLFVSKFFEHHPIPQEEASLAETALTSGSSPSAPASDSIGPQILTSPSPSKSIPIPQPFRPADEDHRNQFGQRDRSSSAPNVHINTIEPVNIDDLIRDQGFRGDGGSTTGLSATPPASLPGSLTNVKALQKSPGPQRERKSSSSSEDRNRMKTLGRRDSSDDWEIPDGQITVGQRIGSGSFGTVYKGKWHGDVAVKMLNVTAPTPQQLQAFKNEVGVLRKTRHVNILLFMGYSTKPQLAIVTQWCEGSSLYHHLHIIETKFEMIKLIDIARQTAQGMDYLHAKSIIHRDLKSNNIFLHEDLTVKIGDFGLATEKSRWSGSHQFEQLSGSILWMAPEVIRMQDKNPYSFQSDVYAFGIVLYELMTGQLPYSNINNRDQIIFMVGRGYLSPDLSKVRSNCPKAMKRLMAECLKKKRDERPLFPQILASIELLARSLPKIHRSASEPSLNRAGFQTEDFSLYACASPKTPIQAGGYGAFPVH
Chain of Vascular endothelial growth factor receptor 2 (P35968 whole entry): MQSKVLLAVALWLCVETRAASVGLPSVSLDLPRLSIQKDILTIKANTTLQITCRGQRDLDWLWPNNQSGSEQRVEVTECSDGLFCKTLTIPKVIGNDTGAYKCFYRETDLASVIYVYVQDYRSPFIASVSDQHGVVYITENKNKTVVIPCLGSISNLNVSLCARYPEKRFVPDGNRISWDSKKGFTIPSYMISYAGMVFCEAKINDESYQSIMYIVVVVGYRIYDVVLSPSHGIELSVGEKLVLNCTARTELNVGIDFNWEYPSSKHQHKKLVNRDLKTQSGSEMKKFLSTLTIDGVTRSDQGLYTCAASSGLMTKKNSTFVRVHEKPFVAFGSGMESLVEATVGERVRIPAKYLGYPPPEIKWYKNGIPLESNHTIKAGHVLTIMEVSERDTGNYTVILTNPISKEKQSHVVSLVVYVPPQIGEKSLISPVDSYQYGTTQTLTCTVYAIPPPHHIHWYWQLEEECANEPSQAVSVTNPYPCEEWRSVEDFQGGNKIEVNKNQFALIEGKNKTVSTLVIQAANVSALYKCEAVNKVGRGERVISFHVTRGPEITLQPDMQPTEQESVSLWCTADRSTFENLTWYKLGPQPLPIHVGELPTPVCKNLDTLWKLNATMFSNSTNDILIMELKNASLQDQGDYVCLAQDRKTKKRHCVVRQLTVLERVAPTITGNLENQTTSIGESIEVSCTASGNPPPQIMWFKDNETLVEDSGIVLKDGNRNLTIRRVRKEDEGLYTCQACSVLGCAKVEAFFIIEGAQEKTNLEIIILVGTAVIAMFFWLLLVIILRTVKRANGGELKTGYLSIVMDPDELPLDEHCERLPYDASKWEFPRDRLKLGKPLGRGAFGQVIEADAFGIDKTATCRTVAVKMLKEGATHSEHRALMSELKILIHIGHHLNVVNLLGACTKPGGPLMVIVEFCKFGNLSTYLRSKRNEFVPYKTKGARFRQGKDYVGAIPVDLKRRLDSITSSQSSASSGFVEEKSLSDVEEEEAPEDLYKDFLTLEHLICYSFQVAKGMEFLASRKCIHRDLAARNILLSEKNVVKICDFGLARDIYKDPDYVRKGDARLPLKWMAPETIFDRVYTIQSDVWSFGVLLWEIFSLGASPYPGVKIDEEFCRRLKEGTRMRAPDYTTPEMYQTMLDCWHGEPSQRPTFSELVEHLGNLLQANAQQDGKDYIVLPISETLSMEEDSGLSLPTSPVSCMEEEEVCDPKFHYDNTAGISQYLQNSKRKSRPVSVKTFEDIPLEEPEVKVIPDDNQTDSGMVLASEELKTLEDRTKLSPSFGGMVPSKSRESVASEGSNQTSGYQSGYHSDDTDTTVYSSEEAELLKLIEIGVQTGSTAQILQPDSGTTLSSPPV
Description for B16-BL6: Cytotoxicity against mouse B16-BL6 cells after 48 hrs by MTT assay
Description for HCT-116: Cytotoxicity against human HCT116 cells after 48 hrs by MTT assay

Turning to `CNC(=O)c1ccc(Sc2ccc(NC(=O)Nc3ccc(Cl)c(C(F)(F)F)c3)cc2)nc1`, the IC50 in assay [1] was more than 1000 nM; in assay [2], 67 nM; in assay [3] it was 21 nM; in assay [5], 535 nM; in [6] it was 84 nM; in [7], 29 nM. For the same molecule, the values for the IC50 with HCT-116 and in the assay on B16-BL6 were 5290 nM and 24600 nM, respectively. For the same molecule, the Activity in the assay with HUVEC [4] was found to be 100%.

In the case of `CNC(=O)c1ccc(Sc2cccc(NC(=S)Nc3ccc(Cl)c(C(F)(F)F)c3)c2)nc1`, the IC50 is 596 nM in [1]; 781 nM in assay [2]; 17 nM in assay [3]; more than 1000 nM in assay [5]; 63 nM in assay [6]; 16 nM in assay [7]. In addition, the IC50 with HCT-116 came out at 5180 nM; with B16-BL6 it was 19800 nM. The Activity in the assay on HUVEC [4] stood at 100%.

As for `CNC(=O)c1ccc(Sc2ccc(NC(=S)Nc3cc(C(F)(F)F)cc(C(F)(F)F)c3)cc2)nc1`, the IC50 in assay [6] came out at 277 nM; in the assay on HCT-116, 16600 nM; in the assay on B16-BL6, 36100 nM.

Take `CNC(=O)c1ccc(Sc2ccc(NC(=S)Nc3ccc(F)c(C(F)(F)F)c3)cc2)nc1`: the IC50 in assay [3] was 33 nM; in assay [6] it was 74 nM; in [7], 45 nM; in the assay on HCT-116, 6370 nM; in the assay on B16-BL6, 29300 nM.

With `CNC(=O)c1ccc(Sc2ccc(NC(=S)Nc3ccc(Cl)cc3)cc2)nc1`, the IC50 in assay [3] worked out at 2060 nM; in assay [6] it was 8660 nM; in assay [7] it was 1780 nM; with HCT-116, 34500 nM; in the assay with B16-BL6, 69300 nM.

In the case of `CNC(=O)c1ccc(Sc2ccc(NC(=S)Nc3ccc(Cl)c(C(F)(F)F)c3)cc2)nc1`, the IC50 in assay [1] was more than 1000 nM; in assay [2], 949 nM; in assay [3], 27 nM; in assay [5], 701 nM; in assay [6] it was 46 nM; in assay [7], 28 nM. Further, the IC50 in the assay on HCT-116 was found to be 4900 nM; in the assay on B16-BL6, 23500 nM. Also, the Activity in the assay with HUVEC [4] came out at 100%.

For the molecule `CNC(=O)c1ccc(Sc2cccc(NC(=S)Nc3ccc(F)c(F)c3)c2)nc1`, the IC50 in assay [3] turned out to be 442 nM; in assay [6], 3860 nM; in assay [7], 539 nM; with HCT-116 it was 35100 nM; in the assay with B16-BL6, 58200 nM.

Consider `CNC(=O)c1ccc(Sc2cccc(NC(=S)Nc3ccc(OC(F)(F)F)cc3)c2)nc1`, for which the IC50 in assay [3] was 5850 nM; in [6], more than 10000 nM; in [7], 7480 nM; with HCT-116, 24500 nM; with B16-BL6, 91000 nM.

`CNC(=O)c1ccc(Sc2cccc(NC(=S)Nc3cc(C(F)(F)F)cc(C(F)(F)F)c3)c2)nc1`: the IC50 worked out at 158 nM in [3]; 887 nM in [6]; 169 nM in [7]; 5020 nM with HCT-116; 54200 nM in the assay with B16-BL6.

As for `CNC(=O)c1ccc(Sc2cccc(NC(=S)Nc3ccc(Cl)cc3)c2)nc1`, the IC50 stood at 791 nM in assay [3]; 5990 nM in [6]; 857 nM in assay [7]; 39500 nM in the assay with HCT-116; 67500 nM in the assay on B16-BL6.

In the case of `CNC(=O)c1cc(Oc2ccc(NC(=O)Nc3ccc(Cl)c(C(F)(F)F)c3)cc2)ccn1` [SORAFENIB], in the assay on HUVEC [8], the Activity stood at 100%. Besides, the result with HUVEC [4] (Homo sapiens) was Active. Further, the midpoint of inhibition in the assay on B16-BL6, the IC50, lay at 36500 nM.

Take `CNC(=O)c1ccc(Sc2ccc(NC(=S)Nc3cccc(C(F)(F)F)c3)cc2)nc1`: the IC50 is 503 nM in assay [3]; more than 10000 nM in assay [6]; 571 nM in assay [7]; 25900 nM in the assay with HCT-116; 53100 nM in the assay on B16-BL6.

For the molecule `CNC(=O)c1ccc(Sc2ccc(NC(=O)Nc3cc(C(F)(F)F)cc(C(F)(F)F)c3)cc2)nc1`, the IC50 in assay [3] turned out to be 93 nM; in [6] it was 508 nM; in assay [7], 196 nM; in the assay on HCT-116 it was 7090 nM; with B16-BL6, 45200 nM.

Turning to `CNC(=O)c1ccc(Sc2cccc(NC(=S)Nc3ccc(Br)c(C(F)(F)F)c3)c2)nc1`, the IC50 in [6] is 133 nM; in the assay with HCT-116, 16500 nM; with B16-BL6, more than 100000 nM.

`CNC(=O)c1ccc(Sc2cccc(NC(=S)Nc3ccc(F)c(Cl)c3)c2)nc1`: the IC50 in [3] was 280 nM; in assay [6], 4020 nM; in [7], 392 nM; in the assay with HCT-116, 17300 nM; in the assay with B16-BL6, more than 100000 nM.

`CNC(=O)c1ccc(Sc2cccc(NC(=S)Nc3ccc(F)c(C(F)(F)F)c3)c2)nc1`: the IC50 in [3] was found to be 69 nM; in assay [6] it was 61 nM; in [7] it was 77 nM; in the assay with HCT-116 it was 18200 nM; with B16-BL6 it was 42400 nM.

Consider `CNC(=O)c1ccc(Sc2ccc(NC(=S)Nc3ccc(OC(F)(F)F)cc3)cc2)nc1`, for which the IC50 was 9870 nM in assay [3]; more than 10000 nM in assay [6]; more than 10000 nM in assay [7]; more than 100000 nM in the assay with HCT-116; more than 100000 nM with B16-BL6.

Regarding `CNC(=O)c1ccc(Sc2ccc(NC(=S)Nc3ccc(F)c(F)c3)cc2)nc1`, the IC50 in assay [3] was 810 nM; in assay [6] it was more than 10000 nM; in assay [7], 892 nM; in the assay with HCT-116, 22200 nM; in the assay with B16-BL6, 52600 nM.

As to `CNC(=O)c1ccc(Sc2cccc(NC(=S)Nc3cccc(C(F)(F)F)c3)c2)nc1`, the IC50 in [3] is 973 nM; in assay [6], 6910 nM; in assay [7], 1270 nM; with HCT-116 it was 16100 nM; in the assay with B16-BL6, 19200 nM.

Consider `CNC(=O)c1ccc(Sc2ccc(NC(=O)Nc3ccc(F)c(C(F)(F)F)c3)cc2)nc1`, for which the IC50 in assay [3] came out at 48 nM; in assay [6] it was 102 nM; in assay [7] it was 65 nM; in the assay on HCT-116, 5800 nM; in the assay with B16-BL6, 39600 nM.
